pEC50: −log10 of the molar value.
Experiments:
HBV (2.2.15 cells) = test: HBV viral product reduction in 2.2.15 cells (qPCR / HBsAg or HBeAg ELISA); format: cell-based; conditions: Hepatitis B virus, 120 h, day 5 post treatment, concentration reducing viral product accumulation in cell lysates or supernatants by 50% relative to no drug controls
Procedure: 2.2.15 cells are passaged upon attaining confluency in DMEM/F12 media in the presence of 10% FBS, Penn/Strep, and 250 ug/mL G418. Novel compounds are 5 fold serially diluted in DMSO and added to 96 well plates containing 35,000 cells/well at a 1:200 dilution so that the final concentration of DMSO is 0.5%. On day 5, post treatment cell lysates and supernatants are harvested for analysis.
Cells are lysed using Agilent Sidestep Lysis buffer, diluted 1:100 and quantified via quantitative real time PCR. Commercially available ELISA kits are used to quantitate the viral proteins HBsAg (Alpco) or HBeAg (US Biological) by following the manufacturer's recommended protocol after diluting samples to match the linear range of their respective assays. Irrespective of readout, compound concentrations that reduce viral product accumulation in the cell lysates or supernatants by 50% relative to no drug controls (EC50) are reported; EC50 ranges are as follows: A<0.1 μM; B 0.1-1 μM; C>1 μM.

[1] = compound induced cellular toxicity in HepG2 cells (ATPlite 1Step); format: cell-based; conditions: human, three days, concentration reducing total ATP levels by 50% relative to no drug controls
Procedure: At day 3, post seeding cells are treated with ATPlite 1Step according to the manufacturer's instructions.

SMILES	pEC50 (HBV (2.2.15 cells))	CC50 at 3 days [1] [µM]
Cn1ccc(-c2cc3c(c4occc24)C[C@@H](C(C)(C)C)n2cc(C(=O)O)c(=O)cc2-3)n1 [Example 16, (S)-5-(tert-butyl)-12-(1-methyl-1H-pyrazol-3-yl)-9-oxo-4,9-dihydro-5H-furo[2,3-f]pyrido[2,1-a]isoquinoline-8-carboxylic acid]	> 7.00	10 to 25
Cn1cc(-c2cc3c(c4occc24)C[C@@H](C(C)(C)C)n2cc(C(=O)O)c(=O)cc2-3)cn1 [Example 15, (S)-5-(tert-butyl)-12-(1-methyl-1H-pyrazol-4-yl)-9-oxo-4,9-dihydro-5H-furo[2,3-f]pyrido[2,1-a]isoquinoline-8-carboxylic acid]	> 7.00	> 25
Cn1cc(-c2cc3c(c4ccoc24)C[C@@H](C(C)(C)C)n2cc(C(=O)O)c(=O)cc2-3)cn1 [Example 5, (S)-5-(tert-butyl)-12-(1-methyl-1H-pyrazol-4-yl)-9-oxo-4,9-dihydro-5H-furo[3,2-f]pyrido[2,1-a]isoquinoline-8-carboxylic acid]	< 6.00	> 25
CC(C)(C)[C@@H]1Cc2c(cc(Cl)c3occc23)-c2cc(=O)c(C(=O)O)cn21 [Example 1, (S)-5-(tert-butyl)-12-chloro-9-oxo-4,9-dihydro-5H-furo[3,2-f]pyrido[2,1-a]isoquinoline-8-carboxylic acid]	> 7.00	> 25
CC(C)(C)[C@@H]1Cc2c(cc(-c3cnco3)c3ccoc23)-c2cc(=O)c(C(=O)O)cn21 [Example 12, (S)-5-(tert-butyl)-12-(oxazol-5-yl)-9-oxo-4,9-dihydro-5H-furo[2,3-f]pyrido[2,1-a]isoquinoline-8-carboxylic acid]	> 7.00	> 25
CC(C)(C)[C@@H]1Cc2c(cc(-c3cscn3)c3ccoc23)-c2cc(=O)c(C(=O)O)cn21 [Example 17, (S)-5-(tert-butyl)-9-oxo-12-(thiazol-4-yl)-4,9-dihydro-5H-furo[2,3-f]pyrido[2,1-a]isoquinoline-8-carboxylic acid]	> 7.00	> 25
CC(C)(C)[C@@H]1Cc2c(cc(N3CCC(F)(F)C3)c3ccoc23)-c2cc(=O)c(C(=O)O)cn21 [Example 19, (S)-5-(tert-butyl)-12-(3,3-difluoropyrrolidin-1-yl)-9-oxo-4,9-dihydro-5H-furo[2,3-f]pyrido[2,1-a]isoquinoline-8-carboxylic acid]	> 7.00	10 to 25
CC(C)(C)[C@@H]1Cc2c(cc(-c3ccoc3)c3ccoc23)-c2cc(=O)c(C(=O)O)cn21 [Example 3, (S)-5-(tert-butyl)-12-(furan-3-yl)-9-oxo-4,9-dihydro-5H-furo[2,3-f]pyrido[2,1-a]isoquinoline-8-carboxylic acid]	> 7.00	> 25
CC(C)(C)[C@@H]1Cc2c(cc(-c3cccs3)c3ccoc23)-c2cc(=O)c(C(=O)O)cn21 [Example 10, (S)-5-(tert-butyl)-9-oxo-12-(thiophen-2-yl)-4,9-dihydro-5H-furo[2,3-f]pyrido[2,1-a]isoquinoline-8-carboxylic acid]	> 7.00	10 to 25

From US11738019B2, “Substituted heterocycles as antiviral agents” (ENANTA PHARMACEUTICALS, INC., priority 2019, dated 2023)
